Source: patent US11793815B2, “Oxindoles and methods of use thereof” (ALIGOS THERAPEUTICS, INC., priority 2020, dated 2023)

The compounds below were run against T1, human thyroid receptor beta ligand-binding domain (LBD) (Homo sapiens, UniProt P10828) (assay: THR Biochemical Assay (Assay 1): TR-FRET thyroid receptor beta coactivator assay). Settings: GST-tagged thyroid receptor beta LBD 1 nM, fluorescein SRC2-2 coactivator peptide 200 nM, 1 hr at rt, TR-FRET ratio 520:495; read-out: Assay 1 (EC50, THR-beta agonist).
T1 construct: Thyroid receptor beta LBD was added to the plate at a final concentration of 1 nM; purchased Invitrogen
T1 sequence (P10828 217-461 limits assumed): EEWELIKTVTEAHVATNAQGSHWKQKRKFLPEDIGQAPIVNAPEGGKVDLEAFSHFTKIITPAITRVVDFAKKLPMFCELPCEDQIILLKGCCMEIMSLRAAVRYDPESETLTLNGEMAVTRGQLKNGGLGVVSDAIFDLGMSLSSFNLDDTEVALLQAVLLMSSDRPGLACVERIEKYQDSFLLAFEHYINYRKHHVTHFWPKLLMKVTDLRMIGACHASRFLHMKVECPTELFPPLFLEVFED
Source text: THR Biochemical Assay (Assay 1)
The TR-FRET thyroid receptor beta coactivator assay was used with slight, optimized modifications of the manufacturer's protocol (Invitrogen). The assay uses a terbium-labeled anti-GST antibody, a glutathione-S-transferase (GST) tagged human thyroid receptor, beta or alpha, ligand-binding domain (LBD), and a fluorescein labeled SRC2-2 coactivator peptide. The antibody interacts with the LBD, where the agonist also binds, resulting in increased affinity for the SRC2-2 coactivator peptide causing energy transfer […] the acceptor fluorophore and a FRET emission shift from 495 to 520 nm. The energy transfer was detected as an increase in the fluorescence emission of the fluorescein acceptor, and a decrease in the fluorescence emission of the terbium donor. The assay was performed in a 384-well black plate in a final volume of 20 μL. Serial dilution of various test agonists was performed in DMSO (1% final DMSO concentration) and added to the test plate. Thyroid receptor beta LBD was added to the plate at a final concentration of 1 nM, followed by the mixture of the fluorescein labeled SRC2-2 coactivator peptide, and the terbium-labeled anti-GST antibody at final concentrations of 200 nM and 2 nM respectively. The assay was incubated for 1 hr at rt protected from light. The TR-FRET was then measured on a Victor multilabel reader (Perkin Elmer) using an excitation wavelength of 340 nm with emission filters of 495 nm and 520 nm. The assay was quantified by expressing a ratio (520:495) of the intensities, and the resulting activation curves; EC50 values were generated using a sigmoidal dose response (variable slope) equation in GraphPad™ Prism 8.0.

EC50, < 50 nM:
O=C1Nc2ccc(Oc3c(Cl)cc(-n4ncc(=O)[nH]c4=O)cc3Cl)c(Cl)c2C12CC2 [Compound 31, 2-(3,5-dichloro-4-((4′-chloro-2′-oxospiro[cyclopropane-1,3′-indolin]-5′-yl)oxy)phenyl)-1,2,4-triazine-3,5(2H,4H)-dione]
Cc1cc(NC(=O)c2noc(=O)[nH]2)cc(C)c1Oc1ccc2c(c1)C1(CCC1)C(=O)N2 [Compound 25, N-(3,5-dimethyl-4-((2′-oxospiro[cyclobutane-1,3′-indolin]-5′-yl)oxy)phenyl)-5-oxo-4,5-dihydro-1,2,4-oxadiazole-3-carboxamide]
Nc1nn(-c2cc(Cl)c(Oc3ccc4c(c3)C3(CCC3)C(=O)N4)c(Cl)c2)c(=O)[nH]c1=O [Compound 6, 6-amino-2-(3,5-dichloro-4-((2′-oxospiro[cyclobutane-1,3′-indolin]-5′-yl)oxy)phenyl)-1,2,4-triazine-3,5(2H,4H)-dione]
O=C(Nc1cc(Cl)c(Oc2ccc3c(c2)C2(CC2)C(=O)N3)c(Cl)c1)c1noc(=O)[nH]1 [Compound 22, N-(3,5-dichloro-4-((2′-oxospiro[cyclopropane-1,3′-indolin]-5′-yl)oxy)phenyl)-5-oxo-4,5-dihydro-1,2,4-oxadiazole-3-carboxamide]
Cc1c(Oc2c(Cl)cc(NC(=O)c3noc(=O)[nH]3)cc2Cl)ccc2c1C1(CC1)C(=O)N2 [Compound 23, N-(3,5-dichloro-4-((4′-methyl-2′-oxospiro[cyclopropane-1,3′-indolin]-5′-yl)oxy)phenyl)-5-oxo-4,5-dihydro-1,2,4-oxadiazole-3-carboxamide]
Cc1cc(NC(=O)c2noc(=O)[nH]2)cc(C)c1Oc1ccc2c(c1)C1(CC1)C(=O)N2 [Compound 39, N-(3,5-dimethyl-4-((2′-oxospiro[cyclopropane-1,3′-indolin]-5′-yl)oxy)phenyl)-5-oxo-4,5-dihydro-1,2,4-oxadiazole-3-carboxamide]
